Assay results taken from patent publication US6432921B1, “Thrombin inhibitors” (Akzo Nobel N.V., priority 1995, dated 2002).

Biological target: T1, Human thrombin (Homo sapiens, UniProt P00734)
T1 construct: purchased Centraal Laboratorium voor Bloedtransfusie, Amsterdam, The Netherlands
Assay: Anti-thrombin assay: rate of hydrolysis of chromogenic substrate S-2238 by thrombin
Format: biochemical
Conditions: TNP buffer pH 7.4, 37° C., substrate S-2238, absorbance at 405 nm; concentration causing 50% inhibition of the maximum absorbance of the blank
Procedure: Thrombin (Factor IIa) is a factor in the coagulation cascade.
The anti-thrombin activity of compounds of the present invention was assessed by measuring spectrophotometrically the rate of hydrolysis of the chromogenic substrate s-2238 exterted by thrombin. This assay for anti-thrombin activity in a buffer system was used to assess the IC50-value of a test compound.
Test medium: Tromethamine-NaCl-polyethylene glycol 6000 (TNP) buffer. Reference compound: I2581 (Kabi) Vehicle:TNP buffer. Solubilisation can be assisted with dimethylsulphoxide, methanol, ethanol, acetonitrile or tert.-butyl alcohol which are without adverse effects in concentrations up to 2.5% in the final reaction mixture.
Technique Reagents*: 1. Tromethamine-NaCl (TN) buffer. Composition of the buffer: Tromethamine(Tris) 6.057 g (50 mmol), NaCl 5.844 g (100 mmol), water to 1 l. The pH of the solution is adjusted to 7.4 at 37° C. with HCl (10 mmol·l^−1). 2. TNP buffer: Polyethylene glycol 6000 is dissolved in TN buffer to give a concentration of 3 g·l^−1. 3. S-2238 solution: One vial S-2238 (25 mg; Kabi Diagnostica, Sweden) is dissolved in 20 ml TN buffer to give a concentration of 1.25 mg·ml^−1 (2 mmol·l^−1). 4. Thrombin solution: Human thrombin (16 000 nKat·vial^−1; Centraal Laboratorium voor Bloedtransfusie, Amsterdam, The Netherlands) is dissolved in TNP buffer to give a stock solution of 835 nKat·ml^−1. Immediately before use this solution is diluted with TNP buffer to give a concentration of 3.34 nKat·ml^−1.
* All ingredients used are of analytical grade
For aqueous solutions ultrapure water (Milli-Q quality) is used.
Preparation of Test and Reference Compound Solutions
The test and reference compounds are dissolved in Milli-Q water to give stock concentrations of 10^−2 mol·l^−1. Each concentration is stepwise diluted with the vehicle to give concentrations of 10^−3, 10^−4 and 10^−5 mol·l^−1. […]
At room temperature 0.075 ml and 0.025 ml test compound or reference compound solutions or vehicle are alternately pipetted into the wells of a microtiter plate and these solutions are diluted with 0.115 ml and 0.0165 ml TNP buffer, respectively. […] Starting after 1 min of incubation, the absorbance of each sample at 405 nm is measured every 2 min. for a period of 90 min. using a kinetic microtiter plate reader (Twinreader plus, Flow Laboratories).
All data are collected in an IBM personal computer using LOTUS-MEASURE. For each compound concentration (expressed in mol·l^−1 reaction mixture) and for the blank the absorbance is plotted versus the reaction time in min.
Evaluation of responses: For each final concentration the maximum absorbance was calculated from the assay plot. […]

IC50 [µM]	Structure (SMILES)
4.5	NCCCCC(NC(=O)CN(C(=O)C(N)Cc1ccccc1)C1CCCC1)C(=O)c1nccs1 [2(e), H—D-Phe-(N-cyclopentyl)-Gly-Lys-(2-thiazolyl)]
19	NCCCC[C@H](NC(=O)[C@@H]1CCCN1C(=O)[C@@H](Cc1ccc(F)cc1)NCC(=O)O)C(=O)c1nccs1 [Example 39, HOOC—CH2—D-p-F-Phe-Pro-Lys-(2-thiazolyl)]
4.34	NCCCCC(NC(=O)CN(C(=O)CCc1ccccc1)C1CCCC1)C(=O)C(=O)O (stereo not shown) [4(b), 3-Phenylpropionyl-(N-cyclopentyl)-Gly-LysΨ[COCO]—OH]
0.135	NCCCCC(NC(=O)CN1CCCCC(NS(=O)(=O)Cc2ccccc2)C1=O)C(=O)C(=O)O (stereo not shown) [Example 41, BzlSO2-norLeu(cyclo)Gly-LysΨ[COCO]—OH]
